# Reference: patent US20130204033A1, “ANTIPROLIFERATIVE COMPOUNDS, CONJUGATES THEREOF, METHODS THEREFOR, AND USES THEREOF” (Medarex, Inc., priority 2009, published 2013)
# Read-outs that look alike come from different tables or passages of the source.
# Legend:
# Assay type in all cases: cell-based, human
# [1] = tested on: ZR-75; experiment: 3H thymidine proliferation assay, ZR-75
# Method in brief: (§1)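 Seeding: 1.0×10^4 cells/well, 3 h. Dosing: 1:3 serial dilutions, 72 h. Label: ^3H-thymidine 1.0 μCi/well for last 24 h, scintillation read; EC50 = 50% proliferation reduction.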
# [2] = tested on: DMS53; experiment: ATP luminescence proliferation assay, DMS53
# Procedure: (§2) This example generally describes the procedures used to assay the antiproliferative activity of compounds of this invention or their conjugates. Human tumor cell lines were obtained from the American Type Culture Collection (ATCC), P.O. Box 1549, Manassas, Va. 20108, USA, and cultured according to instruction from the ATCC. Cells were seeded at 1.0×10^3 or 1.0×10^4 cells/well in 96-well plates for 3 h for ATP assays or ^3H thymidine assays, respectively. 1:3 serial dilutions of free (unconjugated) compounds or their conjugates were added to the wells. Plates were allowed to incubate for 24 to 72 h. The ^3H thymidine plates were pulsed with 1.0 μCi of ^3H-thymidine per well for the last 24 hours of the total incubation period, harvested, and read on a Top Count Scintillation Counter (Packard Instruments, Meriden, Conn.). ATP levels in the ATP plates were measured using the […]-GLO® Luminescent Cell Viability kit following the manufacturer's manual and read on a GLOMAX® 20/20 luminometer (both from Promega, Madison, Wis., USA). The EC50 values—the concentration at which an agent inhibits or reduces cell proliferation by 50% —were determined using PRISM™ software, version 4.0 (GraphPad Software, La Jolla, Calif., USA).
# (§3) Using the ^3H thymidine or the ATP luminescence assay, or both, the activities of compounds of this invention were assayed against the following cancer cell lines: HCT-15 (colorectal cancer, multi-drug resistant (MDR)); Hep3B (liver cancer); LNCaP (prostate cancer, androgen receptor positive (AR^+)); MDA-MB-231 (breast cancer, estrogen receptor, progesterone receptor, and Her2 negative (triple negative)); A2058 (melanoma); U-87 MG (glioblastoma); NCI-H460 (NSCLC); A549 (NSCLC); HPAC (pancreatic cancer, primary); PC3 (prostate cancer, AR); BT474 (breast cancer, Her2 highly positive (Her2hi)); SKOV3 (ovarian cancer, Her2hi); 786-O (renal cancer); UO-31 (renal cancer, MDR); NCI-H740 (SCLC); DMS53 (SCLC); SK-BR3 (breast cancer, Her2hi); ZR-75 (breast cancer, estrogen receptor positive); OVCAR3 (ovarian cancer); HL-60 (APL); OVCAR8/Adr (ovarian cancer, MDR); CEM-Cl (ALL); Nomo-1 (AML); RPMI-8226 (MM)); Raji (lymphoma); SW-480 (colorectal cancer, metastatic); SW-620 (colorectal cancer); and H226 (lung cancer). (Not all compounds were assayed against all cell lines.)
# (§4) Table 3 provides the data for the ATP luminescence proliferation assays, with an incubation period of 48, 72, or 96 h, as noted.
# [3] = tested on: U-87 MG; experiment: 3H thymidine proliferation assay, U-87 MG
# Method in brief: as §1
# [4] = tested on: HL-60; experiment: ATP luminescence proliferation assay, HL-60
# Method in brief: (§5)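 Read-out: luminescent ATP cell viability after 48, 72 or 96 h incubation, as noted, with 1:3 serial dilutions of unconjugated compounds or their conjugates. Plating was 1.0×10^3 cells/well, 3 h before dosing. EC50 = concentration giving 50% inhibition of proliferation.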
# [5] = tested on: Hep3B; experiment: ATP luminescence proliferation assay, Hep3B
# Procedure: as §2, §3, §4
# [6] = tested on: SKOV3; experiment: ATP luminescence proliferation assay, SKOV3
# Procedure: as §2, §3, §4
# [7] = tested on: Nomo-1; experiment: 3H thymidine proliferation assay, Nomo-1
# Method in brief: as §1
# [8] = tested on: CEM-C1; experiment: 3H thymidine proliferation assay, CEM-C1
# Method in brief: as §1
# [9] = tested on: LNCaP; experiment: 3H thymidine proliferation assay, LNCaP
# Method in brief: as §1
# [10] = tested on: RPMI-8226; experiment: 3H thymidine proliferation assay, RPMI-8226
# Method in brief: as §1
# [11] = tested on: UO-31; experiment: ATP luminescence proliferation assay, UO-31
# Procedure: as §2, §3, §4
# [12] = tested on: 786-O; experiment: ATP luminescence proliferation assay, 786-O
# Method in brief: as §5
# [13] = tested on: SW-480; experiment: ATP luminescence proliferation assay, SW-480
# Procedure: as §2, §3, §4
# [14] = tested on: SK-BR3; experiment: ATP luminescence proliferation assay, SK-BR3
# Procedure: as §2, §3, §4
# [15] = tested on: HCT-15; experiment: 3H thymidine proliferation assay, HCT-15
# Method in brief: as §1
# [16] = tested on: Nomo-1; experiment: ATP luminescence proliferation assay, Nomo-1
# Procedure: as §2, §3, §4
# [17] = tested on: HPAC; experiment: ATP luminescence proliferation assay, HPAC
# Procedure: as §2, §3, §4
# [18] = tested on: MDA-MB-231; experiment: 3H thymidine proliferation assay, MDA-MB-231
# Method in brief: as §1
# [19] = 3H thymidine method, 72 h incubation, read-out: EC50, ZR-75
# [20] = 3H thymidine method, 72 h incubation, read-out: EC50, U-87 MG
# [21] = ATP luminescence, 48 h incubation, read-out: EC50 Hep3B (48 h)
# [22] = ATP luminescence, SKOV3, 72 h incubation, read-out: EC50 SKOV3 (72 h)
# [23] = 3H thymidine method, 72 h incubation, read-out: EC50, Nomo-1
# [24] = 3H thymidine method, 72 h incubation, read-out: EC50, CEM-C1
# [25] = 3H thymidine method, 72 h incubation, read-out: EC50, LNCaP
# [26] = 3H thymidine method, 72 h incubation, read-out: EC50, RPMI-8226
# [27] = ATP luminescence, UO-31, 48 h incubation, read-out: EC50 UO-31 (48 h)
# [28] = ATP luminescence, 786-O, 72 h incubation, read-out: EC50 786-O (72 h)
# [29] = ATP luminescence, SW480, 96 h incubation, read-out: EC50 SW480 (96 h)
# [30] = ATP luminescence, SK-BR3, 48 h incubation, read-out: EC50 SK-BR3 (48 h)
# [31] = 3H thymidine method, 72 h incubation, read-out: EC50, HCT-15
# [32] = ATP luminescence, Nomo-1, 48 h incubation, read-out: EC50 Nomo-1 (48 h)
# [33] = ATP luminescence, 72 h incubation, read-out: EC50 HPAC (72 h)
# [34] = 3H thymidine method, 72 h incubation, read-out: EC50, MDA-MB-231
SMILES,"EC50 [1, 19]","EC50 [3, 20]","EC50 [5, 21]","EC50 [6, 22]","EC50 [7, 23]","EC50 [8, 24]","EC50 [9, 25]","EC50 [10, 26]","EC50 [11, 27]","EC50 [12, 28]","EC50 [13, 29]","EC50 [14, 30]","EC50 [15, 31]","EC50 [16, 32]","EC50 [17, 33]","EC50 [18, 34]",further results
CC[C@H](C)[C@H](NC(=O)[C@H]1CCCCN1C)C(=O)N(COC(=O)CC(C)C)[C@H](C[C@@H](OC(C)=O)c1nc(C(=O)N[C@@H](Cc2ccccc2)C(=O)OC)cs1)C(C)C [Compound 29],3.8 nM,0.064 nM,1.6 nM,1.3 nM,0.0075 nM,0.019 nM,0.54 nM,0.034 nM,2.7 nM,2.8 nM,2.7 nM,3.6 nM,0.18 nM,0.24 nM,4.9 nM,0.13 nM,"EC50 ([2]; ATP luminescence, DMS53, 48 h incubation, read-out: EC50 DMS53 (48 h)): 5.3 nM; EC50 ([4]; ATP luminescence, HL-60, 48 h incubation, read-out: EC50 HL-60 (48 h)): 0.59 nM"
CC[C@H](C)[C@H](NC(=O)[C@H]1CCCCN1C)C(=O)N(COC)[C@H](C[C@@H](OC)c1nc(C(=O)N[C@@H](Cc2ccccc2)C(=O)OC)cs1)C(C)C [Compound 29c],44 nM,0.51 nM,75 nM,17 nM,0.43 nM,45 nM,5.2 nM,16 nM,26 nM,34 nM,41 nM,278 nM,2.4 nM,2.9 nM,4.6 nM,4.8 nM,"EC50 ([2]; ATP luminescence, DMS53, 72 h incubation, read-out: EC50 DMS53 (72 h)): 17 nM; EC50 ([4]; ATP luminescence, HL-60, 72 h incubation, read-out: EC50 HL-60 (72 h)): 8.6 nM"
CC[C@H](C)[C@H](NC(=O)[C@H]1CCCCN1C)C(=O)N(C)[C@H](C[C@@H](OC(C)=O)c1nc(C(=O)N[C@@H](Cc2ccc(N)cc2)CC(C)C(=O)O)cs1)C(C)C (stereo partly drawn) [Compound 36],–,–,–,–,–,–,–,–,–,–,–,–,–,–,–,–,"EC50 ([1]; Homo sapiens, ZR75, read-out: EC50, ZR-75, 3H thymidine method, 72 h incubation): > 100 nM; EC50 ([2]; Homo sapiens, DMS-53, 48 h, read-out: EC50 DMS53 (48 h), ATP luminescence, DMS53, 48 h incubation): ~300 nM; EC50 ([3]; Homo sapiens, U-87 MG, read-out: EC50, U-87 MG, 3H thymidine method, 72 h incubation): 15 nM; EC50 ([4]; Homo sapiens, HL-60, 48 h, read-out: EC50 HL-60 (48 h), ATP luminescence, HL-60, 48 h incubation): 114 nM; EC50 ([5]; Homo sapiens, 48 h, read-out: EC50 Hep3B (48 h), ATP luminescence, Hep3B, 48 h incubation): 86 nM; EC50 ([6]; Homo sapiens, SK-OV-3, 72 h, read-out: EC50 SKOV3 (72 h), ATP luminescence, SKOV3, 72 h incubation): 45 nM; EC50 ([7]; Homo sapiens, NOMO-1, read-out: EC50, Nomo-1, 3H thymidine method, 72 h incubation): 124 nM; EC50 ([8]; Homo sapiens, CEM/C1, read-out: EC50, CEM-C1, 3H thymidine method, 72 h incubation): 44 nM; EC50 ([9]; Homo sapiens, LNCaP, read-out: EC50, LNCaP, 3H thymidine method, 72 h incubation): 342 nM; EC50 ([10]; Homo sapiens, RPMI-8226, read-out: EC50, RPMI-8226, 3H thymidine method, 72 h incubation): 48 nM; EC50 ([11]; Homo sapiens, UO-31, 48 h, read-out: EC50 UO-31 (48 h), ATP luminescence, UO-31, 48 h incubation): 8.8 nM; EC50 ([12]; Homo sapiens, 786-0, 72 h, read-out: EC50 786-O (72 h), ATP luminescence, 786-O, 72 h incubation): 183 nM; EC50 ([13]; Homo sapiens, SW480, 96 h, read-out: EC50 SW480 (96 h), ATP luminescence, SW480, 96 h incubation): 81 nM; EC50 ([14]; Homo sapiens, SK-BR-3, 48 h, read-out: EC50 SK-BR3 (48 h), ATP luminescence, SK-BR3, 48 h incubation): > 300 nM; EC50 ([15]; Homo sapiens, HCT-15, read-out: EC50, HCT-15, 3H thymidine method, 72 h incubation): 64 nM; EC50 ([16]; Homo sapiens, NOMO-1, 48 h, read-out: EC50 Nomo-1 (48 h), ATP luminescence, Nomo-1, 48 h incubation): 34 nM; EC50 ([17]; Homo sapiens, 72 h, read-out: EC50 HPAC (72 h), ATP luminescence, HPAC, 72 h incubation): 2.9 nM; EC50 ([18]; Homo sapiens, MDA-MB-231, read-out: EC50, MDA-MB-231, 3H thymidine method, 72 h incubation): > 100 nM"
